Data reported in patent publication US5705649A, “Protein staining compositions and methods” (Promega Corporation, priority 1995, dated 1998).
One block for each compound: values may come before it.

Experiments:
[1] = tested on: Promega Mid Range Molecular Weight Standards; experiment: Detection of fractionated protein in SDS-PAGE gels using dansyl derivatives made in acetone; settings: for lowest protein per band visible: 2% (v/v) eluate in 10% methanol
Experimental: Several 15-well, SDS-PAGE minigels were poured as described in Example 27 and loaded with Promega Mid Range Molecular Weight Standards diluted as described in Example 27 to provide samples containing 1000, 300, 100, 50, 25, 12.5, and 6.25ng of each protein per band in separate lanes of the gel. The samples were fractionated by application of 20 mA per gel until the tracking dye reached the bottom of the gel. All the gels were placed in 10% trichloroacetic acid for 5 min and then incubated for 10 min in 10% (v/v) methanol. The gels were then incubated in a 10% methanol solution containing 2% (v/v) of the derivative eluates (dissolved in 50 ml ethanol) described in Example 28. The gels were transferred to a transilluminator and both visualized and photographed after two hours of staining. The following observations were made. Only the lanes containing 1000 and 300ng of protein per band were visible in the gel incubated with the n-butyl dansyl derivative. The lanes containing the 1000, 300, 100, 50, 25ng per band were visible in the gel incubated with the n-hexyl derivative as were some of the bands in the 12.5 ng per band lane.
After overnight incubation in the stain solutions, the gels were re-observed and rephotographed.
The gels were then placed in 1% acetic acid to remove any unbound stain and rephotographed after three hours of incubation in this solution at room temperature.

[2] = tested on: Promega Mid Range Molecular Weight standard; experiment: Post-electrophoretic staining with fluorescein isothiocyanate derivatives; settings: for lowest protein per band with visible bands / standards detected: 1:500 in 10% methanol, 1 hour, destained 30 min; for lowest protein per band stained: after overnight in 10% methanol
Experimental: Six 12% gels were made as described in Example 27 and were loaded with diluted Promega Mid Range Molecular Weight standard to produce lanes containing, per band, 1000, 500, 200, 100, 75, 50, 25 and 10 ng of protein. The gel was run as described in Example 27 and then the gels were incubated 15 min in 50% methanol. The gels were then transferred to individual 50 ml staining solutions, which were stock derivatized dye solutions of Example 36 diluted 1:500 with 10% methanol. After one hour, these solutions were removed and destaining with 50 ml of 10% methanol was performed. After an additional 30 min. the gels were visualized on a transilluminator and photographed. Protein bands were visible for the gels stained with amino fluorescein and p-amino benzoic acid fluorescein derivatives, however the bands were seen only in the lanes containing 1000, 500, and 200 ng of protein per band. […] At this point, the gel stained with the ethyl p-amino benzoyl derivative allowed detection of all of the proteins in the lanes containing as little as 75 ng of protein per band.
The gels were then placed in 50 ml of 10% methanol and allowed to incubate overnight at room temperature. After overnight incubation, the gels were visualized on a transilluminator and photographed. […] The gel stained with the amino derivative (reaction 5) had faded to the point where protein species were only detected in the 1000 and 500 ng protein per band lanes. However, in these lanes, only particular protein species were stained, as described above.

[3] = tested on: Promega Mid Range Molecular Weight Standards; experiment: Post-electrophoretic detection of protein with purified dansyl derivatives
Experimental: Samples of the eluates from purification of the derivatives were diluted 20-fold with ethanol and the absorption of the resulting solutions from 400 to 220 nm was measured. The absorption of the solutions at 328 nm was used as an indication of the concentration of the derivative in the staining studies in Example 27.
Several SDS-PAGE minigels were made as described in Experiments with Gene Fusions, Silhavy, Berman, Enquist, supra, using the SDS concentrations described by the authors. Samples of Promega Mid Range Molecular Weight Standards were diluted into the loading solution described in the reference above to produce solutions containing 200, 100, 50, 25, and 12.5 ng of each protein species in 10 μl of solution. These solutions were loaded onto the gels and the samples were fractionated in the gels by application of 10 mA per gel until the tracking dye for the samples reached the bottom of the gel. The gels were then rinsed 1 min in distilled water, 15 min in 10% trichloracetic acid (w/v), and then for 15 min in 10% methanol (v/v). The gel segments, approximately 5×6 cm containing the fractionated standard, were then transferred to a 2% ethanol solution (50 ml) containing 0.05 OD328 -equivalent of each of the dansyl derivatives (see Example 26).
The gel segments were returned to their respective staining solutions and were incubated overnight. The following morning, all of the gel segments were again visualized on the transilluminator and photographed as described above. […] In general, relatively equivalent staining of bands was obtained as determined by the strength of the fluorescent signal observed for the various fractionated species.

[4] = Spectral analyses of Coomassie Blue R and Promega Green 1, 2, 3; type: physicochemical
Experimental: The three solutions of Promega Green 1, 2, and 3, from examples 1, 2 and 3 respectively, were diluted approximately 500 fold into a 1:1 solution of methanol:water. The spectra of the resulting solutions and of a 12 μg/ml solution of Coomassie Blue R (in 1:1 methanol:water) were recorded from 700 to 340 nm versus 1:1 methanol:water. […] All of the derivatives gave essentially identical spectra; however, the maximal absorbance of the diluted Promega Green i was about twice that seen for the other derivatives. The derivatives had two peak absorptions in the region of the spectrum scanned, a major peak at around 630 nm and a second peak at around 440 nm. The following absorbances were recorded at the peaks near 630 nm for the three Promega Green dye solutions (diluted 1:500 in 1:1 methanol:water): […]

[5] = tested on: Promega Mid-Range Molecular Weight Markers; experiment: Detection of proteins during SDS-PAGE electrophoresis (dye in cathode buffer); settings: 10% SDS-PAGE, dye in cathode buffer, white plastic card behind gel
Excerpt: Solutions for the formation and electrophoresis of proteins were made according to the instructions given in Experiments in Gene Fusions, Silhavy, Berman, Enquist, Cold Spring Harbor Laboratory Press, Cold Spring Harbor, N.Y. with the following changes:
a) The SDS concentration in the upper and lower gel buffer components were reduced to result in a 0.05% final SDS concentration in the gel. Thus, the composition of 4× upper gel buffer was 0.5M Tris-HCl, pH 6.8, 0.2 % (w/v) sodium dodecylsulfate (SDS) and the composition of 4× lower gel buffer was 1.5M Tris-HCl, pHS.8, 0.2 % (w/v) SDS.
b) The SDS concentration in the electrophoretic (electrode) buffer was reduced to 0.04% final concentration. Thus, 4× electrode (anode or cathode) buffer was made by dissolving 60 g Tris base, 288 g glycine, and 8 g SDS dissolved in water and then diluting with water to 5 liters. Another name sometimes used for "electrode" buffer is "running" buffer.
c) The SDS concentration in the 2× sample buffer was reduced to 1% final SDS concentration. Thus, 2× sample buffer was made by mixing 0.5 ml of betamercaptoethanol, 0.25 ml of 0.1% (w/v) bromophenol blue, 1 ml of 10 % (w/v) SDS, 3 ml of water, and 5.3 ml of 2× glycerol buffer. 2× glycerol buffer is made by mixing 12.5 ml of 4× upper gel buffer and 20 ml of glycerol and diluting the resulting solution to 60 ml with water. Another name sometimes used for "sample" buffer is "loading" buffer.
d) Electrophoresis was performed using a BIO-RAD miniprotein II electrophoresis apparatus and gels were poured such that i cm of space was present between the bottom of the loading wells and the separating gel.
In other electrophoresis experiments reported in this application, the buffers used were as described above in this example. In some cases, as in this example, where preparation of a solution of dye in 150 ml of cathode (or electrode) buffer is specified, an amount of stock solution of a dye was first added to 150 ml of cathode buffer and then 125 ml of the resulting solution was used to fill the cathode buffer chamber (which holds 125 ml) in the electrophoresis apparatus. In other cases, where addition of stock solution of dye to the cathode buffer is specified without reference to the volume of cathode buffer or with reference to such volume being "125 ml," the stock solution was added directly to 125 ml of cathode buffer already in the cathode buffer chamber.
The samples used were prepared with Promega Mid-Range Molecular Weight Markers solution (Promega Corp., Madison, Wis., USA, Catalog No. V5231) (referred to hereinafter as "Promega Mid-Range [Molecular Weight] Markers or Standards") diluted into Sample Buffer. […]

[6] = tested on: Promega Mid-Range Molecular Weight Markers; experiment: Enhancement of staining of proteins in SDS-PAGE gels in 5% acetic acid; settings: 5% acetic acid
Experimental: The gels described above were placed in 5% acetic acid following the termination of the electrophoretic separation. Within one to two minutes the gel developed a light green background but the protein bands dramatically darkened to a green color. […] Again, the color of the background darkened to a greater degree when greater concentrations of dye were used.
The gels above (from Example 7) were placed in 5% acetic acid following termination of the electrophoretic separation. Within 1-2 minutes, all the gels turned light green and the color of the stained bands intensified such that all proteins were visible--even in the lane containing 0.25 μg protein/band.
The gels above (Example 9) were placed in 5% acetic acid following termination of the electrophoretic separation. Within 1-2 minutes, all the gels turned light green and the color of the stained bands intensified such that all proteins were visible--even in the lanes containing 0.25 μg protein/band.

SMILES: CCCCCCNS(=O)(=O)c1cccc2c(N(C)C)cccc12 [n-hexyl derivative]
lowest protein per band visible ([1]; two hours of staining): 25 ng
protein per band at which some of the bands were visible ([1]; two hours of staining): 12.5 ng

SMILES: O=C(O)c1ccc(NC(=S)Nc2ccc(-c3c4ccc(=O)cc-4oc4cc(O)ccc34)c(C(=O)O)c2)cc1 [p-amino benzoic acid fluorescein]
lowest protein per band with visible bands [2]: 200 ng
standards detected [2]: 97, 55, 40 and 31 kDa
lowest protein per band stained [2]: 200 ng

SMILES: CCCCCCCCNS(=O)(=O)c1cccc2c(N(C)C)cccc12 [octyl dansyl derivative]
staining result relative to n-hexyl derivative ([1]; two hours of staining): Essentially equivalent results, but with lower fluorescence intensities
staining quality compared to the amino or butyl derivatives [3]: much better stains compared to the amino or butyl derivatives
visibility of protein bands ([3]; 15 min staining, 0.05 OD328-equivalent in 2% ethanol, 200-12.5 ng per band): easily visualized in the photograph of the gel
change in staining of bovine serum albumin and ovalbumin ([3]; overnight staining): somewhat fainter after the overnight incubation
visibility of protein bands ([3]; overnight staining): easily visible

SMILES: O=C(O)c1cc(NC(=S)Nc2ccc(NC(=S)Nc3ccc(-c4c5ccc(=O)cc-5oc5cc(O)ccc45)c(C(=O)O)c3)cc2)ccc1-c1c2ccc(=O)cc-2oc2cc(O)ccc12 [difluorescein phenylenediamine]
lowest protein per band stained [2]: 200 ng

SMILES: CN(C)c1cccc2c(S(N)(=O)=O)cccc12 [control dansyl amine, reference compound]
visibility of protein bands ([3]; overnight staining): no bands were seen

maximal absorbance wavelength (major peak) ([4]; 1:1 methanol:water, 700 to 340 nm): around 590 nm
SMILES: CCOc1ccc(Nc2ccc(C(=C3C=CC(=[N+](CC)Cc4cccc(S(=O)(=O)[O-])c4)C=C3)c3ccc(N(CC)Cc4cccc(S(=O)(=O)O)c4)cc3)cc2)cc1 [Coomassie Blue R, reference compound]

Absorbance at the peak near 630 nm ([4]; diluted 1:500 in 1:1 methanol:water): 0.83
SMILES: CCCCCCCCCCCC(=O)N(c1ccc(OCC)cc1)c1ccc(C(=C2C=CC(=[N+](CC)Cc3cccc(S(=O)(=O)[O-])c3)C=C2)c2ccc(N(CC)Cc3cccc(S(=O)(=O)O)c3)cc2)cc1 [Promega Green 3]
lowest protein amount per band visible while the gel was running [5]: 1.0 µg
lowest protein amount per band visible after enhancement ([6]; 1-2 minutes): 0.25 µg
staining after overnight incubation ([6]; overnight): darker background color

SMILES: NC(=S)Nc1ccc(-c2c3ccc(=O)cc-3oc3cc(O)ccc23)c(C(=O)O)c1 [reference compound]
lowest protein per band with visible bands [2]: 200 ng
standards detected [2]: 97, 66, 55 and 40 kDa
lowest protein per band stained [2]: 500 ng

SMILES: CCOC(=O)c1ccc(NS(=O)(=O)c2cccc3c(N(C)C)cccc23)cc1
lowest protein per band visible ([1]; two hours of staining): 25 ng

SMILES: CCCCCCCCCCNS(=O)(=O)c1cccc2c(N(C)C)cccc12 [decyl derivative]
lowest protein per band visible ([1]; two hours of staining): 25 ng
protein per band at which most of the protein species were visible ([1]; after 1% acetic acid, three hours): 6.25 ng
protein per band at which at least some of the bands could be visualized ([1]; overnight staining): 12.5 ng

SMILES: CCOC(=O)c1ccc(NC(=S)Nc2ccc(-c3c4ccc(=O)cc-4oc4cc(O)ccc34)c(C(=O)O)c2)cc1 [ethyl p-amino benzoic acid fluorescein]
lowest protein per band with visible bands [2]: 75 ng
lowest protein per band stained [2]: 200 ng

SMILES: CCCCNS(=O)(=O)c1cccc2c(N(C)C)cccc12 [n-butyl dansyl derivative]
lowest protein per band visible ([1]; two hours of staining): 300 ng
